From PMC9457575 (Molecules, 2022)
“Also recorded” adds a separate entry of the source. Where two headings read alike, the source gives them in different places.

Tests used:
[1] = target: T1, human CB1 receptor (hCB1) (Homo sapiens, UniProt P21554); experiment: cAMP accumulation assay (Lance TR-FRET) in CHO-hCB1 cells; assay type: cell-based; settings: for EC50 / hCB1 cAMP EC50: forskolin-stimulated; for EC50 / Emax / hCB1 cAMP EC50 / hCB1 cAMP Efficacy: mean ± SEM; for Emax: read-out: hCB1 cAMP Efficacy, % of the maximum CP55940 (full agonist) signal; for hCB1 cAMP Efficacy: % of the maximum CP55940 (full agonist) signal
T1 construct: host or cells: Chinese Hamster Ovary (CHO) cells
T1 sequence (P21554 whole entry): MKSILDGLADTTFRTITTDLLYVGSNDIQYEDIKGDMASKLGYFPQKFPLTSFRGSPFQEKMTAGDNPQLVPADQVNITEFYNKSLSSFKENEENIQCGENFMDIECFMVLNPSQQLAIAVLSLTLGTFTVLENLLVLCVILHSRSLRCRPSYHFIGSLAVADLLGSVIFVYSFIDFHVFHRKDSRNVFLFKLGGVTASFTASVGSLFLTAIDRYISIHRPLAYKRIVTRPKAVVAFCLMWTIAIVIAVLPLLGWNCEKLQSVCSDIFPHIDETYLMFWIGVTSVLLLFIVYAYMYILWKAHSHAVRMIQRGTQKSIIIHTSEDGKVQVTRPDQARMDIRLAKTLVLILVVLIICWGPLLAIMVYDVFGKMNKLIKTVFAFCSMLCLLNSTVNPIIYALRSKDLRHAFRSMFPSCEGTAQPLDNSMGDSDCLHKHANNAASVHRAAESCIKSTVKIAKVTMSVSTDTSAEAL
Method: The cAMP assays were performed in Chinese Hamster Ovary (CHO) cells (Perkin Elmer, Cat # ES-110-C) stably expressing the human CB1 receptor (hCB1) cultured under standard cell culture conditions (37 °C, 5% carbon dioxide, DMEM media with 1% Penicillin/Streptomycin and 400 µg/mL G418) using the Lance™ assay kit and manufacturer’s instructions were closely followed (Perkin Elmer). In brief, stimulation buffer containing 1X Hank’s Balanced Salt Solution (HBSS), 5 mM HEPES, 0.1% BSA stabilizer, and 0.5 mM final IBMX was prepared and titrated to pH 7.4 at rt. Serial dilutions of the test compounds and 300 nM forskolin, both prepared at 4× the desired final concentration in stimulation buffer, were added to a 96-well white ½ area microplate (PerkinElmer). The CHO-hCB1 cells were lifted with a non-enzymatic solution (Cell-stripper, Mediatech Inc., Orlando, FL, USA), and 4000 cells were added to each well. After incubating for 30 min at room temperature, Eu-cAMP tracer and uLIGHT-anti-cAMP working solutions were added per the manufacturer’s instructions. After incubation for 1 h, the TR-FRET signal (ex 337 nm, em 620 and […]) was read on a CLARIO star multimode plate reader (BMG Biotech, Cary, NC, USA). Data were analyzed using Prism software (GraphPad, La Jolla, CA, USA). Nonlinear regression analysis was performed to fit data and obtain maximum response (Emax), EC50, correlation coefficient (r^2), and other parameters. All experiments were performed in duplicate 2–3 times to ensure reproducibility and data are reported as mean ± standard error of mean unless noted otherwise.

[2] = Pharmacokinetic evaluation of brain exposure in mice; set-up: species or system C57BL/6 mice; settings: female, C57BL/6, mouse, in vivo, C57BL6 mice, 3 mg/kg IP; for Cmax: brain, 0.5-4 h, read-out: brain maximum (Cmax) concentration; for Kp: read-out: brain:plasma Cmax ratio
Method: Female C57BL/6 mice were bred in house and used at ~10 weeks of age for pharmacokinetic (PK) testing. Three animals were tested per time point. Doses were formulated in 2% NMP in canola oil, and all compounds were delivered at 3 mg/kg by intraperitoneal injection (IP). Tissues were taken at 0.5, 1, 2, and 4 h post dose. Animals were subjected to whole body perfusion using saline prior to tissue collection. Brain samples were homogenized with 50:50 ethanol:water (1:5, v/v). Forty µL of the homogenate, 10 µL of acetonitrile, and 150 µL of 100 ng/mL reserpine in acetonitrile containing 0.1% formic acid were vortexed and centrifuged. Plasma samples were diluted with 10 µL of acetonitrile, 150 µL of 100 ng/mL reserpine in acetonitrile containing 0.1% formic acid, vortexed and centrifuged. Samples were subjected to LC/MS/MS analysis. Standards were prepared in blank samples and used for calibration curves. Chromatography was performed using a Phenomenex Luna C18 column.

hCB1 = hCB1 (Homo sapiens, UniProt P21554); experiment: Radioligand displacement of [3H]CP55940; settings: average of 3 measurements, read-out: Binding affinity (Ki)
Chain of hCB1 (P21554 whole entry): as above
Method: Further characterization of 21 was performed using radioligand displacement of [^3H]CP55940 and equilibrium dissociation constant (Ki) value was determined as described previously. Data reported are average values from 3 measurements with <30% standard error.

[3] = CHO cells stably expressing hCB1, read-out: hCB1 cAMP EC50
[4] = CHO cells stably expressing hCB1
[5] = hCB1 cAMP EC50, CHO cells stably expressing hCB1

With `N#Cc1ccccc1Oc1cccc(NS(=O)(=O)CCCC(F)(F)F)c1` [Compound 6, N-[3-(2-Cyanophenoxy)phenyl]-4,4,4-trifluorobutane-1-sulfonamide] the EC50 [1, 3] was 106 ± 8 nM and the Emax [1] was 95%.

In the case of `N#Cc1ccccc1Oc1cccc(NS(=O)(=O)Cc2ccccc2)c1` [Compound 10, N-[3-(2-Cyanophenoxy)phenyl]-1-phenylmethanesulfonamide], the EC50 [1, 3] is reported as 164 ± 32 nM and the Emax [1] is reported as 82%.

In the case of `CCCCCC(=O)Nc1cccc(Oc2cccc(C(F)(F)F)c2C#N)c1` [Compound 16, N-{3-[2-Cyano-3-(trifluoromethyl)phenoxy]phenyl}hexanamide], the “hCB1 cAMP EC50” value [1, 4] is reported as “Inactive” and the melting point is reported as 95 to 96 °C.

In the case of `CCCCNC(=O)Nc1cccc(Oc2cccc(C(F)(F)F)c2C#N)c1` [Compound 18, 3-Butyl-1-{3-[2-cyano-3-(trifluoromethyl)phenoxy]phenyl}urea], the “hCB1 cAMP EC50” value [1, 4] is reported as “Inactive”.

`CCCCCS(=O)(=O)Nc1cccc(Oc2cccc(C(F)(F)F)c2C#N)c1` [Compound 7, N-{3-[2-Cyano-3-(trifluoromethyl)phenoxy]phenyl}pentane-1-sulfonamide] showed an EC50 [1, 3] of 248 ± 108 nM and an Emax [1] of 76%.

For `O=S(=O)(CCCC(F)(F)F)Nc1cccc(Oc2cccc(C(F)(F)F)c2Cl)c1` [Compound 5, N-{3-[2-Chloro-3-(trifluoromethyl)phenoxy]phenyl}-4,4,4-trifluorobutane-1-sulfonamide], the EC50 [1, 3] was 175 ± 42 nM and the Emax [1] was 95%.

`N#Cc1c(Oc2cccc(NS(=O)(=O)CCCC(F)(F)F)c2)cccc1C(F)(F)F` [Compound 4, N-{3-[2-Cyano-3-(trifluoromethyl)phenoxy]phenyl}-4,4,4-trifluorobutane-1-sulfonamide] gave an EC50 [1, 3] of 190 ± 46 nM, an Emax [1] of 96% and a melting point of 96 to 97 °C.

For `N#Cc1c(Oc2cccc(NS(=O)(=O)Cc3cccc(Cl)c3)c2)cccc1C(F)(F)F` [Compound 12, 1-(3-Chlorophenyl)-N-{3-[2-cyano-3-(trifluoromethyl)phenoxy]phenyl}methanesulfonamide], the “hCB1 cAMP EC50” value [1, 4] was “loss of activity; also recorded: Inactive” and the melting point was 144 to 145 °C.

With `N#Cc1c(Oc2cccc(NS(=O)(=O)c3ccc(OC(F)(F)F)cc3)c2)cccc1C(F)(F)F` [Compound 15, N-{3-[2-Cyano-3-(trifluoromethyl)phenoxy]phenyl}-4-(trifluoromethoxy)benzene-1-sulfonamide] the “hCB1 cAMP EC50” value [1, 4] was “Inactive” and the melting point was 164 to 165 °C.

In the case of `N#Cc1c(Oc2cccc(NS(=O)(=O)Cc3ccc(Cl)cc3)c2)cccc1C(F)(F)F` [Compound 13, 1-(4-Chlorophenyl)-N-{3-[2-cyano-3-(trifluoromethyl)phenoxy]phenyl}methanesulfonamide], the “hCB1 cAMP potency compared to the unsubstituted benzylsulfonamide 8” value ([1]; fold more potent than 8) is reported as “about 10 ×”, the EC50 [1, 5] is reported as 25 ± 4 nM and the Emax [1] is reported as 95%. It also gave a melting point of 115 to 116 °C.

With `N#Cc1c(Oc2cccc(NS(=O)(=O)c3cccc(OC(F)(F)F)c3)c2)cccc1C(F)(F)F` [Compound 14, N-{3-[2-Cyano-3-(trifluoromethyl)phenoxy]phenyl}-3-(trifluoromethoxy)benzene-1-sulfonamide] the “hCB1 cAMP EC50” value [1, 4] was “Inactive” and the melting point was 120 to 121 °C.

For `N#Cc1c(Oc2cccc(OS(=O)(=O)CCCC(F)(F)F)c2)cccc1C(F)(F)F` [Compound 1, 3-[2-Cyano-3-(trifluoromethyl)phenoxy]phenyl-4,4,4-trifluoro-1-butanesulfonate, reference compound], the “hCB1 cAMP Efficacy” value [1] was 39 ± 11%, the EC50 [1, 5] was 46 ± 5 nM and the Cmax [2] was ~341 ng/mL. The Kp [2] was 0.4.

With `CCCCCS(=O)(=O)Nc1ccc(Oc2cccc(C(F)(F)F)c2C#N)cc1` [Compound 22, N-{4-[2-Cyano-3-(trifluoromethyl)phenoxy]phenyl}pentane-1-sulfonamide] the “hCB1 cAMP EC50” value [1, 4] was “Inactive” and the melting point was 94 to 95 °C.

In the case of `N#Cc1c(Oc2ccc(NS(=O)(=O)Cc3ccccc3)cc2)cccc1C(F)(F)F` [Compound 23, N-{4-[2-Cyano-3-(trifluoromethyl)phenoxy]phenyl}-1-phenylmethanesulfonamide], the “hCB1 cAMP EC50” value [1, 4] is reported as “Inactive” and the melting point is reported as 166 to 167 °C.

For `O=S(=O)(Cc1ccccc1)Nc1cccc(Oc2cccc(C(F)(F)F)c2Cl)c1` [Compound 9, N-{3-[2-Chloro-3-(trifluoromethyl)phenoxy]phenyl}-1-phenylmethanesulfonamide], the EC50 [1, 3] was 255 ± 62 nM, the Emax [1] was 78% and the melting point was 129 to 130 °C.

In the case of `N#Cc1c(Oc2cccc(NS(=O)(=O)Cc3ccccc3)c2)cccc1C(F)(F)F` [Compound 8, N-{3-[2-Cyano-3-(trifluoromethyl)phenoxy]phenyl}-1-phenylmethanesulfonamide], the EC50 [1, 3] is reported as 228 ± 134 nM, the Emax [1] is reported as 102% and the melting point is reported as 131 to 132 °C.

With `N#Cc1c(Oc2ccc(NC(=O)Cc3ccccc3)cc2)cccc1C(F)(F)F` [Compound 24, N-{4-[2-Cyano-3-(trifluoromethyl)phenoxy]phenyl}-2-phenylacetamide] the “hCB1 cAMP Efficacy” value [1] was 36 ± 14%, the EC50 [1, 3] was 366 ± 136 nM and the Emax [1] was 36%. The Cmax [2] was ~730 ng/mL, the Kp [2] was 0.79 and the melting point was 200 to 201 °C.

In the case of `CCCCOC(=O)Nc1cccc(Oc2cccc(C(F)(F)F)c2C#N)c1` [Compound 17, Butyl N-{3-[2-Cyano-3-(trifluoromethyl)phenoxy]phenyl}carbamate], the “hCB1 cAMP EC50” value [1, 4] is reported as “Inactive”.

With `N#Cc1c(Oc2cccc(NC(=O)Cc3ccccc3)c2)cccc1C(F)(F)F` [Compound 20, N-{3-[2-Cyano-3-(trifluoromethyl)phenoxy]phenyl}-2-phenylacetamide] the EC50 [1, 3] was 474 ± 174 nM, the Emax [1] was < 20% and the melting point was 136 to 137 °C.

With `CCCCN(C)C(=O)Nc1cccc(Oc2cccc(C(F)(F)F)c2C#N)c1` [Compound 19, 3-Butyl-1-{3-[2-cyano-3-(trifluoromethyl)phenoxy]phenyl}-3-methylurea] the “hCB1 cAMP EC50” value [1, 4] was “Inactive”.

In the case of `N#Cc1c(Oc2cccc(NS(=O)(=O)Cc3ccccc3Cl)c2)cccc1C(F)(F)F` [Compound 11, 1-(2-Chlorophenyl)-N-{3-[2-cyano-3-(trifluoromethyl)phenoxy]phenyl}methanesulfonamide], the “hCB1 cAMP EC50” value [1, 4] is reported as “loss of activity; also recorded: Inactive” and the melting point is reported as 121 to 122 °C.

In the case of `N#Cc1c(Oc2cccc(NS(=O)(=O)NC3CCCCC3)c2)cccc1C(F)(F)F` [Compound 21, N-Cyclohexyl({3-[2-cyano-3-(trifluoromethyl)phenoxy]phenyl}mamino)sulfonamide], the “hCB1 cAMP Efficacy” value [1] is reported as 27 ± 18%, the EC50 [1, 5] is reported as 139 ± 24 nM and the Emax [1] is reported as 27%. The Ki (hCB1) was ~1500 nM, the Cmax [2] was ~75 ng/mL and the Kp [2] was 0.17. The melting point was 199 to 200 °C.
